From patent US20250147039A1, “Compounds for complexation of rare earth elements and/or s-, p-, d- block metals, their coordination compounds, peptide conjugates, method of their preparation and use thereof” (USTAV ORGANICKE CHEMIE A BIOCHEMIE AV CR V.V.I., priority 2021, published 2025)
Values belong to the compound of their own block, whether it stands above or below them.

Columns and labels:
[1] = Formation of 1,5-cz-[M(Lig)] from Lig and M^III ions (metal dependent click-zip) (Charts 4, 5); type: physicochemical; details: MOPS/NaOH buffer pH 7.0; for conversion to 1,5-cz-[M(Lig)], Sc^III / conversion to 1,5-cz-[M(Lig)], Y^III: TD728, TD827 in 50% i-PrOH; for conversion to 1,5-cz-[M(Lig)], Y^III: TD714 sum of two diastereoisomers
[2] = Formation of 1,5-cz-[Ln(Lig)] from Lig and Ln^III ions (metal dependent click-zip), MOPS/NaOH buffer pH 7.0, analytical HPLC (Charts 1, 2); details: MOPS/NaOH buffer pH 7.0

conversion to 1,5-cz-[M(Lig)], Sc^III ([1]; 1 week at 80° C.): 8%
conversion to 1,5-cz-[M(Lig)], Y^III ([1]; 1 week at 80° C.): 91%
conversion to 1,5-cz-[M(Lig)], Sc^III ([1]; 1 hour at 80° C.): 1%
conversion to 1,5-cz-[M(Lig)], Y^III ([1]; 1 hour at 80° C.): 20%
conversion to 1,5-cz-[Ln(Lig)], Ce^III ([2]; after 1 week at 80° C.): 1%
conversion to 1,5-cz-[Ln(Lig)], Ce^III ([2]; after 1 hour at 80° C.): 1%
conversion to 1,5-cz-[Ln(Lig)], Dy^III ([2]; after 1 week at 80° C.): 86%
conversion to 1,5-cz-[Ln(Lig)], Dy^III ([2]; after 1 hour at 80° C.): 15%
conversion to 1,5-cz-[Ln(Lig)], Er^III ([2]; after 1 week at 80° C.): 93%
conversion to 1,5-cz-[Ln(Lig)], Er^III ([2]; after 1 hour at 80° C.): 33%
conversion to 1,5-cz-[Ln(Lig)], Eu^III ([2]; after 1 week at 80° C.): 73%
conversion to 1,5-cz-[Ln(Lig)], Eu^III ([2]; after 1 hour at 80° C.): 4%
conversion to 1,5-cz-[Ln(Lig)], Gd^III ([2]; after 1 week at 80° C.): 74%
conversion to 1,5-cz-[Ln(Lig)], Gd^III ([2]; after 1 hour at 80° C.): 5%
conversion to 1,5-cz-[Ln(Lig)], Ho^III ([2]; after 1 week at 80° C.): 90%
conversion to 1,5-cz-[Ln(Lig)], Ho^III ([2]; after 1 hour at 80° C.): 22%
conversion to 1,5-cz-[Ln(Lig)], La^III ([2]; after 1 week at 80° C.): 5%
conversion to 1,5-cz-[Ln(Lig)], La^III ([2]; after 1 hour at 80° C.): 0%
conversion to 1,5-cz-[Ln(Lig)], Lu^III ([2]; after 1 week at 80° C.): 95%
conversion to 1,5-cz-[Ln(Lig)], Lu^III ([2]; after 1 hour at 80° C.): 54%
conversion to 1,5-cz-[Ln(Lig)], Nd^III ([2]; after 1 week at 80° C.): 52%
conversion to 1,5-cz-[Ln(Lig)], Nd^III ([2]; after 1 hour at 80° C.): 2%
conversion to 1,5-cz-[Ln(Lig)], Pr^III ([2]; after 1 week at 80° C.): 35%
conversion to 1,5-cz-[Ln(Lig)], Pr^III ([2]; after 1 hour at 80° C.): 1%
conversion to 1,5-cz-[Ln(Lig)], Sm^III ([2]; after 1 week at 80° C.): 57%
conversion to 1,5-cz-[Ln(Lig)], Sm^III ([2]; after 1 hour at 80° C.): 3%
conversion to 1,5-cz-[Ln(Lig)], Tb^III ([2]; after 1 week at 80° C.): 83%
conversion to 1,5-cz-[Ln(Lig)], Tb^III ([2]; after 1 hour at 80° C.): 10%
conversion to 1,5-cz-[Ln(Lig)], Tm^III ([2]; after 1 week at 80° C.): 93%
conversion to 1,5-cz-[Ln(Lig)], Tm^III ([2]; after 1 hour at 80° C.): 45%
conversion to 1,5-cz-[Ln(Lig)], Yb^III ([2]; after 1 week at 80° C.): 95%
conversion to 1,5-cz-[Ln(Lig)], Yb^III ([2]; after 1 hour at 80° C.): 53%
Compound: C#Cc1cccc(CN2CCN(CC(=O)O)CCN(Cc3cc(C(F)(F)F)cc(CN=[N+]=[N-])n3)CCN(CC(=O)O)CC2)n1 [TD1063]

conversion to 1,5-cz-[Ln(Lig)] with hydrolysed group in the side chain, Sc^III ([1]; 1 week at 80° C.): 17%
conversion to 1,5-cz-[Ln(Lig)] with hydrolysed group in the side chain, Y^III ([1]; 1 week at 80° C.): 95%
conversion to 1,5-cz-[M(Lig)], Sc^III ([1]; 1 week at 80° C.): 0%
conversion to 1,5-cz-[M(Lig)], Y^III ([1]; 1 week at 80° C.): 0%
conversion to 1,5-cz-[Ln(Lig)] with hydrolysed group in the side chain, Sc^III ([1]; 1 hour at 80° C.): 0%
conversion to 1,5-cz-[Ln(Lig)] with hydrolysed group in the side chain, Y^III ([1]; 1 hour at 80° C.): 12%
conversion to 1,5-cz-[M(Lig)], Sc^III ([1]; 1 hour at 80° C.): 1%
conversion to 1,5-cz-[M(Lig)], Y^III ([1]; 1 hour at 80° C.): 6%
conversion to 1,5-cz-[Ln(Lig)] with hydrolysed group in the side chain, Ce^III ([2]; after 1 week at 80° C.): 37%
conversion to 1,5-cz-[Ln(Lig)], Ce^III ([2]; after 1 week at 80° C.): 0%
conversion to 1,5-cz-[Ln(Lig)] with hydrolysed group in the side chain, Ce^III ([2]; after 1 hour at 80° C.): 0%
conversion to 1,5-cz-[Ln(Lig)], Ce^III ([2]; after 1 hour at 80° C.): 0%
conversion to 1,5-cz-[Ln(Lig)] with hydrolysed group in the side chain, Dy^III ([2]; after 1 week at 80° C.): 94%
conversion to 1,5-cz-[Ln(Lig)], Dy^III ([2]; after 1 week at 80° C.): 0%
conversion to 1,5-cz-[Ln(Lig)] with hydrolysed group in the side chain, Dy^III ([2]; after 1 hour at 80° C.): 8%
conversion to 1,5-cz-[Ln(Lig)], Dy^III ([2]; after 1 hour at 80° C.): 5%
conversion to 1,5-cz-[Ln(Lig)] with hydrolysed group in the side chain, Er^III ([2]; after 1 week at 80° C.): 94%
conversion to 1,5-cz-[Ln(Lig)], Er^III ([2]; after 1 week at 80° C.): 0%
conversion to 1,5-cz-[Ln(Lig)] with hydrolysed group in the side chain, Er^III ([2]; after 1 hour at 80° C.): 19%
conversion to 1,5-cz-[Ln(Lig)], Er^III ([2]; after 1 hour at 80° C.): 12%
conversion to 1,5-cz-[Ln(Lig)] with hydrolysed group in the side chain, Eu^III ([2]; after 1 week at 80° C.): 91%
conversion to 1,5-cz-[Ln(Lig)], Eu^III ([2]; after 1 week at 80° C.): 0%
conversion to 1,5-cz-[Ln(Lig)] with hydrolysed group in the side chain, Eu^III ([2]; after 1 hour at 80° C.): 2%
conversion to 1,5-cz-[Ln(Lig)], Eu^III ([2]; after 1 hour at 80° C.): 2%
conversion to 1,5-cz-[Ln(Lig)] with hydrolysed group in the side chain, Gd^III ([2]; after 1 week at 80° C.): 92%
conversion to 1,5-cz-[Ln(Lig)], Gd^III ([2]; after 1 week at 80° C.): 0%
conversion to 1,5-cz-[Ln(Lig)] with hydrolysed group in the side chain, Gd^III ([2]; after 1 hour at 80° C.): 3%
conversion to 1,5-cz-[Ln(Lig)], Gd^III ([2]; after 1 hour at 80° C.): 2%
conversion to 1,5-cz-[Ln(Lig)] with hydrolysed group in the side chain, Ho^III ([2]; after 1 week at 80° C.): 94%
conversion to 1,5-cz-[Ln(Lig)], Ho^III ([2]; after 1 week at 80° C.): 0%
conversion to 1,5-cz-[Ln(Lig)] with hydrolysed group in the side chain, Ho^III ([2]; after 1 hour at 80° C.): 13%
conversion to 1,5-cz-[Ln(Lig)], Ho^III ([2]; after 1 hour at 80° C.): 7%
conversion to 1,5-cz-[Ln(Lig)] with hydrolysed group in the side chain, La^III ([2]; after 1 week at 80° C.): 40%
conversion to 1,5-cz-[Ln(Lig)], La^III ([2]; after 1 week at 80° C.): 0%
conversion to 1,5-cz-[Ln(Lig)] with hydrolysed group in the side chain, La^III ([2]; after 1 hour at 80° C.): 0%
conversion to 1,5-cz-[Ln(Lig)], La^III ([2]; after 1 hour at 80° C.): 0%
conversion to 1,5-cz-[Ln(Lig)] with hydrolysed group in the side chain, Lu^III ([2]; after 1 week at 80° C.): 97%
conversion to 1,5-cz-[Ln(Lig)], Lu^III ([2]; after 1 week at 80° C.): 0%
conversion to 1,5-cz-[Ln(Lig)] with hydrolysed group in the side chain, Lu^III ([2]; after 1 hour at 80° C.): 30%
conversion to 1,5-cz-[Ln(Lig)], Lu^III ([2]; after 1 hour at 80° C.): 26%
conversion to 1,5-cz-[Ln(Lig)] with hydrolysed group in the side chain, Nd^III ([2]; after 1 week at 80° C.): 73%
conversion to 1,5-cz-[Ln(Lig)], Nd^III ([2]; after 1 week at 80° C.): 0%
conversion to 1,5-cz-[Ln(Lig)] with hydrolysed group in the side chain, Nd^III ([2]; after 1 hour at 80° C.): 0%
conversion to 1,5-cz-[Ln(Lig)], Nd^III ([2]; after 1 hour at 80° C.): 1%
conversion to 1,5-cz-[Ln(Lig)] with hydrolysed group in the side chain, Pr^III ([2]; after 1 week at 80° C.): 62%
conversion to 1,5-cz-[Ln(Lig)], Pr^III ([2]; after 1 week at 80° C.): 0%
conversion to 1,5-cz-[Ln(Lig)] with hydrolysed group in the side chain, Pr^III ([2]; after 1 hour at 80° C.): 0%
conversion to 1,5-cz-[Ln(Lig)], Pr^III ([2]; after 1 hour at 80° C.): 0%
conversion to 1,5-cz-[Ln(Lig)] with hydrolysed group in the side chain, Sm^III ([2]; after 1 week at 80° C.): 88%
conversion to 1,5-cz-[Ln(Lig)], Sm^III ([2]; after 1 week at 80° C.): 0%
conversion to 1,5-cz-[Ln(Lig)] with hydrolysed group in the side chain, Sm^III ([2]; after 1 hour at 80° C.): 2%
conversion to 1,5-cz-[Ln(Lig)], Sm^III ([2]; after 1 hour at 80° C.): 1%
conversion to 1,5-cz-[Ln(Lig)] with hydrolysed group in the side chain, Tb^III ([2]; after 1 week at 80° C.): 93%
conversion to 1,5-cz-[Ln(Lig)], Tb^III ([2]; after 1 week at 80° C.): 0%
conversion to 1,5-cz-[Ln(Lig)] with hydrolysed group in the side chain, Tb^III ([2]; after 1 hour at 80° C.): 6%
conversion to 1,5-cz-[Ln(Lig)], Tb^III ([2]; after 1 hour at 80° C.): 3%
conversion to 1,5-cz-[Ln(Lig)] with hydrolysed group in the side chain, Tm^III ([2]; after 1 week at 80° C.): 95%
conversion to 1,5-cz-[Ln(Lig)], Tm^III ([2]; after 1 week at 80° C.): 0%
conversion to 1,5-cz-[Ln(Lig)] with hydrolysed group in the side chain, Tm^III ([2]; after 1 hour at 80° C.): 26%
conversion to 1,5-cz-[Ln(Lig)], Tm^III ([2]; after 1 hour at 80° C.): 19%
conversion to 1,5-cz-[Ln(Lig)] with hydrolysed group in the side chain, Yb^III ([2]; after 1 week at 80° C.): 96%
conversion to 1,5-cz-[Ln(Lig)], Yb^III ([2]; after 1 week at 80° C.): 0%
conversion to 1,5-cz-[Ln(Lig)] with hydrolysed group in the side chain, Yb^III ([2]; after 1 hour at 80° C.): 30%
conversion to 1,5-cz-[Ln(Lig)], Yb^III ([2]; after 1 hour at 80° C.): 24%
Compound: C#Cc1cccc(CN2CCN(CC(=O)O)CCN(Cc3cc(C(=O)OC)cc(CN=[N+]=[N-])n3)CCN(CC(=O)O)CC2)n1 [TD1092]
